Results published in US20100267635A1, “USE OF PROTEASE INHIBITORS AND GRF MOLECULES IN COMBINATION THERAPY” (THERATECHONOLGIES INC., priority 2009, published 2010).

Legend:
[1] = Two-way crossover drug interaction study: plasma ritonavir PK with (Treatment A) and without (Treatment B) TH9507; assay type: in vivo, human
Method: (§1) 2 ml of TH9507 (1 mg/ml injectable solution) was administered by subcutaneous injection under fasting conditions once daily for 7 consecutive days (daily dose of 2 mg TH9507).
(§2) N=32 healthy adult (male and female) subjects were enrolled. Dosing occurred in two groups.
(§3) PK/statistics: PK parameters were calculated using standard noncompartmental approaches.
(§4) The 90% CIs for the Treatment A/Treatment B LSM ratios for AUC0-t.

[2] = Plasma TH9507 PK (ELISA) on day 6 in the ritonavir interaction study; assay type: in vivo; details: both sexes, human, sc, 2 mg s.c. once daily
Method: as §1, §2, §3

CYP3A = assay: Impact of TH9507 on CYP3A activity, concluded from the ritonavir PK interaction study; assay type: in vivo, human; details: 2 mg TH9507 s.c. days 1 to 7, ritonavir as probe
Source text: as §4

Row | Cmax ([1]; both sexes, human, plasma, oral, 100 mg) [ng/mL] | AUC(0-inf) ([1]; both sexes, human, plasma, oral, 100 mg, read-out: AUC0-inf Treatment B) [ng·h/mL] | AUC(0-t) ([1]; both sexes, human, plasma, oral, 100 mg, read-out: AUC0-t Treatment B) [ng·h/mL] | half-life ([1]; both sexes, human, plasma, oral, 100 mg, read-out: T1/2 Treatment B (converted)) [h] | Tmax ([1]; both sexes, human, plasma, oral, 100 mg, read-out: Tmax Treatment B) [h] | Tmax ([1]; both sexes, human, plasma, oral, read-out: Tmax Treatment A) [h] | T1/2 Treatment A ([1]; plasma ritonavir, with TH9507, arithmetic mean (% CV)) | Structure (SMILES) | half-life ([2]; arithmetic mean) [min] | AUC(0-inf) ([2]; geometric mean) [ng·h/mL] | AUC(0-t) ([2]; geometric mean) [ng·h/mL] | Cmax ([2]; geometric mean) [ng/mL] | Tmax ([2]; median) [min] | impact on CYP3A activity (CYP3A)
1 | 453 | 3800 | 3720 | 6.26 | 4.5 | 4.5 | 5.72 (23.0) h | CC(C)c1nc(CN(C)C(=O)N[C@H](C(=O)N[C@@H](Cc2ccccc2)C[C@H](O)[C@H](Cc2ccccc2)NC(=O)OCc2cncs2)C(C)C)cs1 [Ritonavir, 1,3-thiazol-5-ylmethyl N-[(2S,3S,5S)-3-hydroxy-5-[(2S)-3-methyl-2-{[methyl({[2-(propan-2-yl)-1,3-thiazol-4-yl]methyl})carbamoyl]amino}butanamido]-1,6-diphenylhexan-2-yl]carbamate] | – | – | – | – | – | –
2 | – | – | – | – | – | – | – | CC/C=C/CC(=O)N[C@@H](Cc1ccc(O)cc1)C(=O)N[C@@H](C)C(=O)N[C@@H](CC(=O)O)C(=O)N[C@@H](C)C(=O)N[C@H](C(=O)N[C@@H](Cc1ccccc1)C(=O)N[C@H](C(=O)N[C@@H](CC(N)=O)C(=O)N[C@@H](CO)C(=O)N[C@@H](Cc1ccc(O)cc1)C(=O)N[C@@H](CCCNC(=N)N)C(=O)N[C@@H](CCCCN)C(=O)N[C@H](C(=O)N[C@@H](CC(C)C)C(=O)NCC(=O)N[C@@H](CCC(N)=O)C(=O)N[C@@H](CC(C)C)C(=O)N[C@@H](CO)C(=O)N[C@@H](C)C(=O)N[C@@H](CCCNC(=N)N)C(=O)N[C@@H](CCCCN)C(=O)N[C@@H](CC(C)C)C(=O)N[C@@H](CC(C)C)C(=O)N[C@@H](CCC(N)=O)C(=O)N[C@@H](CC(=O)O)C(=O)N[C@H](C(=O)N[C@@H](CCSC)C(=O)N[C@@H](CO)C(=O)N[C@@H](CCCNC(=N)N)C(=O)N[C@@H](CCC(N)=O)C(=O)N[C@@H](CCC(N)=O)C(=O)NCC(=O)N[C@@H](CCC(=O)O)C(=O)N[C@@H](CO)C(=O)N[C@@H](CC(N)=O)C(=O)N[C@@H](CCC(N)=O)C(=O)N[C@@H](CCC(=O)O)C(=O)N[C@@H](CCCNC(=N)N)C(=O)NCC(=O)N[C@@H](C)C(=O)N[C@@H](CCCNC(=N)N)C(=O)N[C@@H](C)C(=O)N[C@@H](CCCNC(=N)N)C(=O)N[C@@H](CC(C)C)C(N)=O)[C@@H](C)CC)C(C)C)[C@@H](C)O)[C@@H](C)CC [TH9507, (hexenoyl trans-3)hGRF(1-44)NH2] | 6.6 | 0.79 | 0.657 | 2.7 | 9 | not significant
